# From US6960559B1, “Neurite growth regulatory factors” (University of Zurich, priority 1988, dated 2005)
# Several values for one entry are separate records, joined by “and”; a condition that tells them apart may be missing. Equal entries are not always repeated. Where two headings read alike, the source gives them in different places. Where a SMILES comes first, the peptide text is derived from it. The star is where a group is joined. Cbz = O=C(OCc1ccccc1)*
# What was measured:
# [1] = tested on: C6 plasma membrane associated metalloendoprotease; test: Enzyme assay: cbz-FAF[125I]Y-NH2 degradation by C6 plasma membranes with protease blockers; assay type: biochemical, rat
# Description: For most experiments, 70-80% confluent cell layers (1 cm^2 wells, 100 μl MEMα) or 2-5 μg C6 plasma membrane (100 μl MEMα) were used. […] If indicated, cell layers or plasma membrane suspensions were preincubated for 30 min with protease blockers or peptides. NEM or iodacetamide incubations of plasma membranes were performed at pH 8.5. The incubation was stopped by loading a 10 μl aliquot of the incubation medium on a thin layer chromatography plate (10 cm height, Kieselgel 60 F254, MERCK, Germany) and air dried. […] Plates were then air dried and exposed on Kodak X-OMAT films (NY, USA) with an intensifying screen. To identify the degradation products on thin-layer chromatography, we run reference peptides under the same conditions.
# For the quantification of the activity, the reaction was stopped by addition of an equal volume of chloroform. […] Activity is expressed as % radioactivity contained in the aqueous phase. 100% is the sum of the radioactivity of both phases.
# C6 glioblastoma cells = test: cells; assay type: cell-based, rat; details: for IC50: 2 h
# Description: Rat C6 glioblastoma cells (Benda et al., 1968, Science 161:370-371) were cultured in Dulbecco's modified Eagle's medium (DMEM) supplemented with 10% fetal calf serum (FCS), usually to maximally 70-80% confluency (Paganetti et al., 1988, J. Cell Biol. 107:2281-2291). All cell culture media were routinely supplemented with penicillin and streptomycin. Cells were harvested by a short trypsin treatment (0.1% in Ca^2+/Mg^2+-free [CMF] PBS/EDTA solution for 90 seconds) followed by addition of DMEM/10% FCS and centrifugation (600×g, 6 min). The cell pellet was rinsed with 5 ml DMEM/10% FCS and centrifuged. For cell spreading assays, cells were resuspended at 10^6/ml in defined serum-free medium (MEMα) supplemented with 0.2 μg/ml insulin, 0.5 μg/ml transferrin and 0.12 μg/ml bovine serum albumin (BSA). Protease blockers or peptides were added directly to the cell suspension from 10×solutions 10 min before plating.
# Spinal cord myelin from young adult Lewis rats was purified on a discontinuous sucrose gradient (Colman et al., 1982, J. Cell Biol. 95:598-608; Schwab and Caroni, 1988, J. Neurosci. 8:2381-2393) and stored in 100 mM sucrose, 25 mM TRIS/HCl pH 7.4 at −80° C. up to 6 months. The myelin suspension ([…]) was incubated for 30 min on poly-D-lysine-coated wells (PLYS-wells). Unbound myelin membranes were removed by rinsing twice with CMF-Hank's and once with MEMα. Myelin-coated wells were used immediately for the spreading assay by adding 9'000 C6 cells per cm^2. Experiments were scored as described (Paganetti et al., 1988, J. Cell Biol. 107:2281-2291).
# C6 cells = test: C6 cell spreading on CNS myelin or PLYS with protease inhibitors; assay type: cell-based, rat; details: for Inhibition on CNS (%): C6 cells, spreading on PLYS minus spreading on CNS myelin; for Effect on C6 cell spreading on CNS myelin, in words: Section 9
# Description: Rat C6, mouse NIH 3T3 and B16 cells were cultured in Dulbecco's modified Eagle's medium (DMEM) supplemented with 10% fetal calf serum (FCS), usually to maximally 70-80% confluency. Cells were harvested with a short trypsin treatment (0.1% in Ca^2+/Mg^2+-free Hank's medium for 90 seconds) stopped by addition of FCS in excess, collected by centrifugation. Cells were resuspended in either DMEM/FCS or defined serum-free medium (MEM) and used for experiments. Dissociated rat CNS glial cells were prepared starting from optic nerves of 6-7 days old Lewis rats as described in Section 6.1.1, supra and plated into poly-D-lysine (PLYS) coated wells (100 mm^2, 100 μl medium) at a density of 20,000 cells per well. The culture medium was an enriched L15 medium with 5% rat serum, penicillin and streptomycin. C6, 3T3 and B16 cells were added to 2 day old cultures at a concentration of 30,000 cells per well, incubated for two hours and fixed with warm 4% formalin in phosphate buffer. Inhibitory oligodendrocytes were identified by double labelling using the specific antibodies O1 and O4 (see Section 6.1.3, supra).
# Myelin from rat spinal cord (CNS) or sciatic nerve (PNS) purified on a discontinuous sucrose gradient as described in Section 6.1.5., was dried overnight onto PLYS coated wells (20 μg protein/well of 100 mm^2 surface). Unbound membranes were removed by three washes with Ca^2+/Mg^2+-free Hank's solution. Myelin coated wells were immediately used in substrate testing assays by the addition of 9,000 cells (C6, 3T3, or B16) per cm^2. Alternatively, we used extracted CNS myelin protein, or SDS-PAGE purified 35 and 250 kD inhibitory proteins reconstituted in liposomes (see Section 7.1.5, supra). Experiments were scored at different time points using a phase contrast microscope equipped with a photocamera. Quantifications were done using a surface integration program; three arbitrary fields were photographed for each well at a magnitude of 80×, at least 25 cells per picture were measured. Each point represents the mean of at least 3 wells±SEM. Results are expressed as μ^2 of projected cell surface, or as degree, which was calculated by subtracting from the projected surface value of a spreading cell, the surface value of a completely spheric cell.
# cbz-FAF[^125I]Y-NH2 = test: Degradation of cbz-FAF[125I]Y-NH2 by defined proteases and C6 cell fractions; assay type: biochemical
# Description: Preparation of plasma membrane from C6 cells was performed according to (Raper and Kapfhammer, 1990, Neuron 2:21-29) with some modifications. Briefly, C6 cells were cultured in 30 culture dishes (13.5 cm diameter). At confluency, the culture medium was removed and the cell layers were frozen to −20° C. All subsequent manipulations were performed at 4° C.: cell debris were collected using a rubber policeman in 100 ml CMF-Hank's and further homogenized by 10 strokes in a Dounce homogenizer with teflon plunger. A small aliquot of this suspension was stored at −20° C. and used later (homogenate-fraction). The nuclear pellet was obtained by low speed centrifugation (10 min, 1000×g) in a Sorvall S22 rotor and stored at […] A crude vesicular fraction was obtained by centrifugating the nuclear supernatant in a Sorvall S22 rotor (20,000×g, 30 min), and was resuspended in 10 ml CMF-Hank's. After adding 20 ml 2.25 M sucrose in CMF-Hank's, this suspension was loaded on 4×8 ml 2.25 M sucrose in CMF-Hank's and centrifuged at 80,000×g for 1 h in a Beckman SW28 motor. Plasma membranes were harvested at the top and the mitochondrial fraction at the interphase of this 2 step gradient. Both fractions were diluted 10× with CMF-Hank's and pelleted (Beckman TI80, 22,000×g, 30 min). The two pellets were resuspended in 2 ml MEMα (1.3 mg protein/ml) supplemented with 0.5 mM DTT and stored at −20° C.
# For most experiments, 70-80% confluent cell layers (1 cm^2 wells, 100 μl MEMα) or 2-5 μg C6 plasma membrane (100 μl MEMα) were used. Reactions were started by the addition of 10 μl cbz-FAF[^125I]Y-NH2 (SEQ ID NO:2) (2 μM in MEMα, 10,000-30,000 cpm). If indicated, cell layers or plasma membrane suspensions were preincubated for 30 min with protease blockers or peptides. NEM or iodacetamide incubations of plasma membranes were performed at pH 8.5. The incubation was stopped by loading a 10 μl aliquot of the incubation medium on a thin layer chromatography plate (10 cm height, Kieselgel 60 F254, MERCK, Germany) and air dried. Thin layer chromatography was routinely run with CHCl3:CH3OH:CH3COOH 32% (5:3:1). Plates were then air dried and exposed on Kodak X-OMAT films (NY, USA) with an intensifying screen. To identify the degradation products on thin-layer chromatography, we run reference peptides under the same conditions.
# For the quantification of the activity, the reaction was stopped by addition of an equal volume of chloroform. This simple procedure allowed us to separate an organic phase containing the unreacted substrate cbz-FAF[^125I]Y-NH2 and an aqueous phase containing the charged degradation products (see also FIG. 30). Activity is expressed as % radioactivity contained in the aqueous phase. 100% is the sum of the radioactivity of both phases.
# [2] = C6 cell spreading on CNS myelin, read-out: IC50 on CNS myelin
compound,measurement,setting,value
C[C@H](CS)C(=O)N1CCC[C@H]1C(=O)O [Captopril],"Effect on cbz-FAF[^125I]Y-NH2 degradation by C6 plasma membranes, in words",[1],had no effect
C[C@H](NC(=O)[C@@H](N)Cc1ccccc1)C(=O)N[C@@H](Cc1ccccc1)C(=O)N[C@@H](Cc1ccc(O)cc1)C(N)=O [FAFY-NH2] (H-FAFY-NH2; N-terminus assumed),IC50,C6 glioblastoma cells; [2],300 µM
CCN1C(=O)C=CC1=O [N-ethylmaleimide],"Effect on cbz-FAF[^125I]Y-NH2 degradation by C6 plasma membranes, in words",[1],had no effect
"O=S(=O)(F)Cc1ccccc1 [PMSF, Phenyl methyl sulfonyl fluoride]","Effect on cbz-FAF[^125I]Y-NH2 degradation by C6 plasma membranes, in words",[1],had no effect
same,Inhibition on CNS (%),C6 cells,6%
CC(C)C[C@H](NC(=O)[C@@H](O)[C@H](N)Cc1ccccc1)C(=O)O [bestatine],"Effect on cbz-FAF[^125I]Y-NH2 degradation by C6 plasma membranes, in words",[1],did not affect overall activity
same,"Effect on formation of Y-NH2 from cbz-FAF[^125I]Y-NH2, in words",[1],specifically inhibited the formation of Y-NH2
same,Inhibition on CNS (%),C6 cells,0%
same,"Effect on C6 cell spreading on CNS myelin, in words",C6 cells,did not impair C6 cell spreading
"C[C@H](NC(=O)OCc1ccccc1)C(=O)N[C@@H](Cc1ccccc1)C(N)=O [cbz-AF-NH2, carbobenzoxy-alanine-phenylalanine-amide]",IC50,C6 glioblastoma cells; [2],600 µM
C[C@H](NC(=O)OCc1ccccc1)C(=O)N[C@@H](Cc1ccccc1)C(=O)N[C@@H](Cc1ccc(O)cc1)C(N)=O [cbz-AFY-NH2],"Effect on C6 cell spreading on CNS myelin, in words",C6 glioblastoma cells; Section 11,strong inhibition of cell spreading
C[C@H](NC(=O)[C@H](Cc1ccccc1)NC(=O)OCc1ccccc1)C(N)=O [cbz-FA-NH2],IC50,C6 glioblastoma cells; [2],600 µM
"C[C@H](NC(=O)[C@H](Cc1ccccc1)NC(=O)OCc1ccccc1)C(=O)N[C@@H](Cc1ccccc1)C(=O)N[C@@H](Cc1ccc(O)cc1)C(N)=O [cbz-FAFY-NH2, carbobenzoxy-Phe-Ala-Phe-Tyr-amide] (Cbz-FAFY-NH2)",IC50,C6 glioblastoma cells,3 µM
same,"Effect on C6 cell spreading on CNS myelin, in words",C6 glioblastoma cells; Section 11,clearly impaired C6 cell spreading on CNS myelin
same,"Effect on C6 cell spreading on PLYS-coated wells, in words",C6 glioblastoma cells; Section 11,had no effect on PLYS-coated wells
COC(=O)[C@H](Cc1ccccc1)NC(=O)[C@H](Cc1ccccc1)NC(=O)CNC(=O)OCc1ccccc1 [cbz-GFF-OCH3] (Cbz-Gly-Phe-Phe-OMe),IC50,C6 glioblastoma cells,5 µM
same,"Effect on C6 cell spreading on CNS myelin, in words",C6 glioblastoma cells; Section 11,strong inhibition of cell spreading
O=C(CNC(=O)OCc1ccccc1)N[C@@H](Cc1ccccc1)C(=O)N[C@@H](Cc1ccccc1)C(=O)O [cbz-GFF] (Cbz-Gly-Phe-Phe-OH; C-terminus assumed),IC50,C6 glioblastoma cells,300 µM
CC(C)C[C@H](NC(=O)CNC(=O)OCc1ccccc1)C(=O)N[C@@H](Cc1ccccc1)C(N)=O [cbz-GLF-NH2] (Cbz-Gly-Leu-Phe-NH2),IC50,C6 glioblastoma cells,5 µM
NC(=O)CI [iodacetamide],"Effect on cbz-FAF[^125I]Y-NH2 degradation by C6 plasma membranes, in words",[1],had no effect
CC(C)C[C@H](NP(=O)(O)O[C@@H]1O[C@@H](C)[C@H](O)[C@@H](O)[C@H]1O)C(=O)N[C@@H](Cc1c[nH]c2ccccc12)C(=O)O [phosphoramidon],"Effect on cbz-FAF[^125I]Y-NH2 degradation by C6 plasma membranes, in words",[1],had no effect
same,Inhibition on CNS (%),C6 cells,9%
same,"Effect on C6 cell spreading on CNS myelin, in words",C6 cells,did not impair C6 cell spreading
Carboxymethyl-phe-leu [cm-phe-leu],"Effect on cbz-FAF[^125I]Y-NH2 degradation by C6 plasma membranes, in words",[1],had no effect
same,Inhibition on CNS (%),C6 cells,3%
same,"Effect on C6 cell spreading on CNS myelin, in words",C6 cells,did not inhibit C6 cell spreading
cathepsin D: acidic protease,Amount necessary to degrade 50% of substrate in 30 min,"cbz-FAF[^125I]Y-NH2; 37° C., pH 7.4",>100 µg
same,Amount giving half maximal activity on cbz-FAFY-NH2,cbz-FAF[^125I]Y-NH2; pH 4.0,5 ng
same,Amount necessary to degrade 50% of substrate in 30 min,cbz-FAF[^125I]Y-NH2; pH 4.0,0.005 µg
collagenase,Amount necessary to degrade 50% of substrate in 30 min,"cbz-FAF[^125I]Y-NH2; 37° C., pH 7.4",3 µg and 3.0 µg
trypsin,Amount necessary to degrade 50% of substrate in 30 min,"cbz-FAF[^125I]Y-NH2; 37° C., pH 7.4",0.3 µg
